The values that follow come from patent publication US20250027930A1, “SMALL MOLECULES FOR REPROGRAMING ANTI-TUMOR IMMUNITY OF T CELLS” (THE SCRIPPS RESEARCH INSTITUTE, priority 2021, published 2025).

For one assay, the system named is OT-I splenocytes. Nature of the assay: OT-I splenocyte culture with KRAS (G12C) inhibitors 9/12 and analogues. The conditions noted are these: added D0 at 5 uM or D3 at 5 uM or 10 uM, kept till day 7. The format is cell-based, mouse. The method, then:
We performed additional studies to examine the observed activities of KRAS (G12C) inhibitors in modulating T cell properties. First, OT-I splenocytes were activated with OVA257-264 peptide (500 nM) for 3 days in the presence of 60 IU/mL IL-2 and cultured for another 7 days. Inhibitor 9 (i9) or inhibitor 12 (i12) was added on Day0 (D0) upon activation at 5 uM and the concentration was kept till day 7 or added on Day3 (D3) after activation at 5 uM or 10 uM and the concentration was kept till day 7 for analysis.
Other than inhibitors 9 and 12, we also tested activities of two analogues of these KRAS (G12C) inhibitors. The analogues, Z7 and Z6, are derived from Inhibitor 9 and Inhibitor 12, respectively. They have an alkynyl group for click reaction which is used for ABPP analysis to find the targets of the inhibitors (FIG. 18A). In the studies, OT-I splenocytes were activated with OVA257-264 peptide (500 nM) for 3 days in the presence of 60 IU/mL IL-2 and cultured for another 7 days. 5 uM […], i9, z6 or z7 were added on Day0 (DO) upon activation.
As noted above, Inhibitor 9 and Inhibitor 12 have a cysteine-reactive group ([…] and acrylamide) that allows covalent binding of i9 and i12 to a cysteine residue in proteins. We further tested two analogue compounds, ZT-1 and ZT-2, that are not capable of forming the covalent binding. […] Cell number was recorded on day 5 and day 7. […]

The subject of assay [1] is hPBMCs. Nature of the assay: Donor hPBMC expansion with irradiated feeder cells. Type of assay: cell-based, human. The conditions noted are these: 2 μM. The procedure: (FIG. 9A) Donor hPBMCs were activated twice with irradiated (50 Gy) feeder cell mixture, initially on day 0 and then similarly on day 6. […] (FIG. 9C) Gated CD8^+ hPBMCs were analyzed for the expression of inhibitory receptors Tim-3 and PD-1 (terminally exhausted phenotype downregulation not statistically significant in either donor). (FIG. 9D) the expression of Tim-3 and TCF-1. (FIG. 9E) the expression of CCR7 and CD45RA.
Donor hPBMC cells were co-cultured 1:1 with an irradiated (50 Gy) mixture of hPBMCs from five different donors (henceforth, feeder cells). Irradiation arrests cell division, yet these feeder cells retain the ability to provide extracellular secretions to help donor cells proliferate. Cytokine signaling and HLA mismatch provides for robust donor hPBMC activation. Donor hPBMCs were activated twice with the irradiated feeder cell mixture, initially on day 0 and then similarly on day 6 (FIG. 9A). Beginning on day 0, donor hPBMCs were continuously cultured with 300 IU/mL IL2 and with or without K-Ras(G12C) inhibitor 12 (2 μM) (FIG. 9A).

Assay [2] relates to hPBMCs. The experiment in a line: Donor hPBMC expansion with irradiated feeder cells. The conditions noted are these: 2 μM. The format is cell-based, human. This is another data set of the same source.
The next assay relates to CD8+ OT-I T cells. Nature of the assay: OT-I splenocyte culture with K-Ras(G12C) inhibitors. The conditions noted are these: 5 μM. The format is cell-based, mouse.
In the next assay the test system is M8 tetramer+ CD8+ TILs. Nature of the assay: Rapid expansion of M8 tetramer+ CD8+ TILs from MC38 tumors. The format is cell-based, mouse. The following applies: 5 μM. The source says:
We further observed that K-Ras(G12C) inhibitor 12 prevents the generation of terminally exhausted (PD-1^+, Tim-3^+) antigen-specific CD8^+ tumor infiltrating lymphocytes (TILs) and facilitates production of progenitor-like (Tpex, Tim-3^−, TCF-1^+) antigen-specific CD8^+ TILs during in vitro expansion. Specifically, to elucidate the ability of K-Ras(G12C) inhibitor 12 to modulate properties of tumor infiltrating lymphocytes (TILs) in vitro, we utilized an MC38 murine colonic cancer model. C57BL/6J (B6) mice were inoculated with MC38 cells. Tumors were grown for 14 days and then harvested. Antigen specific (H-2K^b-restricted MuLV p15E604-611-specific, henceforth M8 tetramer^+) CD8^+ TILs were isolated. M8 tetramer^+ CD8^+ TILs were subjected to rapid expansion. On day 1 of rapid expansion, TILs were added 1:100 with irradiated BALB/c splenocytes and incubated with 1500 IU/mL IL2 for proliferation, […] anti-CD3 (mouse) antibody for activation, and with or without K-Ras(G12C) inhibitor 12 (5 μM).

A further assay relates to anti-GD2 CAR-T cells. Nature of the assay: Anti-GD2 CAR-T cell expansion with Inhibitor 9/12, phenotype and cell number. The conditions noted are these: Inhibitor 9 at 2 or 3 uM, Inhibitor 12 at 1 or 2 uM; day 15.
In another assay the test system is P14 CD8+ T cells. Type of assay: in vivo, mouse.
The subject of the next assay is OT-1 cells. Nature of the assay: OT-I-Tcf7GFP splenocyte screen: proliferation and Tim3−TCF-1+ ratio. Type of assay: cell-based, mouse. The conditions noted are these: Day7, 80 mM. The procedure:
Cell number was recorded on day 3 and day 7. On day 7, cells were stained with anti-CD8a (PerCP-Cy5.5) and anti-Tim3 (BV421) antibodies for flow cytometry or plate reader analysis.
Because TCF1 expression positively correlates with T cell stemness, the greater signal of EGFP a T cell expresses, the less differentiated the T cell is. Furthermore, if the compound also facilitates T cells proliferation, there would be more T cells per well in comparison to the untreated control. Therefore, a compound that not only maintains TCF-1 expression but also facilitates T cell growth would produce the strongest green fluorescence intensity. […] GlcA stands for glucuronic acid.

Assay [3] relates to MC38 TSA-reactive CD8+ TILs. Nature of the assay: Rapid expansion of TSA-reactive CD8+ TILs from MC38 tumors. The format is cell-based, mouse. The procedure: Sugars were added at the beginning or during the expansion of the TILs, and kept till the end of expansion. On expansion day 9, phenotypes of the expanded T cells were assessed, and the cells were used for adoptive transfer (FIG. 6E). For adoptive transfer, 0.5 million cells (B16-OVA or MC38) were inoculated subcutaneously on each mouse on day 0, Listeria monocytogenes-OVA (LM-OVA) infection 0.5 million CFU/mice on day 1, and blood analysis was recorded on day 7.

The next assay relates to P14 cells. Nature of the assay: P14 splenocyte in vitro activation, re-stimulation and expansion. Type of assay: cell-based, mouse. The following applies: 80 mM; for Fold of proliferation, Normalized to W/O: P14 cells.
For the next assay, the system named is OVA-specific TILs. The experiment in a line: In vivo expansion of expanded OVA-specific TILs after LM-OVA challenge. Also on record: species or system mouse. The following applies: naïve mice; vs T cells expanded without added sugars.

For the compound `C=CC(=O)N1CCN(C(=O)CNc2cc(I)c(Cl)cc2O)CC1` [K-Ras(G12C) inhibitor 12], the “expression of inhibitory receptors (Tim-3+PD-1)” value in the assay with OT-I splenocytes is reported as “decreased”. In addition, the “terminally exhausted (PD-1^+, Tim-3^+) CD8^+ hPBMCs” value with hPBMCs [1] (day 13, donor 3, untreated 3.52%) was found to be 2.6%; in the assay on hPBMCs [1] (day 13, donor 4, untreated 5.01%) it was 3.27%. The “terminally exhausted (PD-1^+, Tim-3^+) CD4^+ hPBMCs” value in the assay with hPBMCs [1] (day 13, donor 3, untreated 15.7%) was 0.83%; in the assay with hPBMCs [2] (day 13, donor 4, untreated 14.7%), 7.9%. For the same compound, the “progenitor-like phenotype (Tim-3^−, TCF-1^+) CD8^+ hPBMCs” value is on record as 51.5% with hPBMCs [1] (day 13, donor 3, untreated 15.9%) and 39.7% with hPBMCs [1] (day 13, donor 4, untreated 6.78%). Besides, the “CD8^+ terminally differentiated effector memory cells (TEMRA, CCR7^−, CD45RA^+)” value in the assay on hPBMCs [1] (donor 3 and donor 4) is given as “downregulated”. Also, in the assay with hPBMCs [1] (donor 3 and donor 4), the “stem-like memory CD8^+ T cells (TSCM, CCR7^+, CD45RA^+)” value is “produced less-differentiated stem-like memory CD8^+ T cells”. In the assay with hPBMCs [1] (hPBMCs from both donors), the mean cell expansion result is “no statistically significant compromise”. Moreover, the “TEMRA (donor 3) or TEM (donor 4) CD4^+ hPBMCs” value in the assay on hPBMCs [2] was “downregulated”. In the assay on hPBMCs [2], the “stem-like memory CD4^+ T cells (TSCM, CCR7^+, CD45RA^+)” value is “upregulated”. The “progenitor-like phenotype (Tim-3^−, TCF-1^+) CD4^+ hPBMCs” value came out at 78.4% with hPBMCs [2] (day 13, donor 3, untreated 33.3%) and 78.7% in the assay with hPBMCs [2] (day 13, donor 4, untreated 53.3%). Further, the cell expansion result in the assay with CD8+ OT-I T cells (OT-I) is recorded as “does not compromise cell expansion”; in the assay with M8 tetramer+ CD8+ TILs (day 8 post-expansion, pre-expansion 0.1×10^6, untreated 1.18×10^6, n=1) it was 0.397×10^6 TILs. For the same compound, the “generation of progenitor-like T cells” value in the assay with CD8+ OT-I T cells (OT-I culture model) is reported as “effectively promoted the generation of progenitor-like T cells”. Besides, in the assay on CD8+ OT-I T cells (day 5, untreated 23.8%), the “terminally exhausted (PD-1^+, Tim-3^+) CD8^+ OT-I T cells” value was “about 0.46%”. The “progenitor-like phenotype (Tim-3^−, TCF-1^+) CD8^+ OT-I T cells” value in the assay on CD8+ OT-I T cells (day 5, untreated 38.6%) is recorded as 91.6%. Moreover, the “CD8+ cells displaying the terminally exhausted phenotype (PD-1^+ Tim-3^+)” value in the assay on M8 tetramer+ CD8+ TILs (day 8 post rapid expansion, untreated 79.4%) came out at 29.2%. For the same compound, the “CD8^+ cells displaying the progenitor-like phenotype (Tim-3^−, TCF-1^+)” value with M8 tetramer+ CD8+ TILs (post-expansion, untreated 0.076%) was 12.8%. In addition, in the assay with anti-GD2 CAR-T cells, the “expression of inhibitory receptors (PD-1, LAG3, Tim-3 and CD39) of anti-GD2 CAR-T cells” value is recorded as “decreased the expression of inhibitory receptors”. Besides, in the assay with anti-GD2 CAR-T cells, the “progenitor features of anti-GD2 CAR-T cells” value is “increased progenitor features”.

In the case of `OC[C@H]1O[C@@](CO)(O[C@H]2O[C@H](CO)[C@@H](O)[C@H](O)[C@H]2O)[C@@H](O)[C@@H]1O` [Sucrose, sucrose], in the assay on P14 CD8+ T cells (7 dpi LCMV-Cl13, cells pre-treated in vitro, vs co-transferred untreated P14 cells), the “percentages and total numbers of expanded virus-specific P14 CD8+ T cells in the blood” value is given as “significantly higher”. Moreover, the “percentages and total numbers of expanded virus-specific P14 CD8+ T cells in the spleen and liver” value in the assay with P14 CD8+ T cells (14 dpi LCMV-Cl13, cells treated in vitro, vs untreated) is reported as “significantly higher”. The “Tim3^−TCF-1^+ ratio of CD8^+ T cells (%)” value was 41.2% with OT-1 cells (w/o 2.6); 89.8% with P14 cells (Day6, w/o 55.0); 48.6% in the assay on P14 cells (Day9, w/o 3.5). Moreover, in the assay with OT-1 cells (Mus musculus, Splenocyte, 168 h, OT-1 cells, read-out: Proliferation fold, Normalized to W/O), the activity at 80000 µM was 86%. In addition, in [3], the “cell surface anti-CLA (Cutaneous Lymphocyte-associated Antigen) staining” value is given as “significant increase”. Further, the figures for the “Fold of proliferation, Normalized to W/O” value with P14 cells (Day6) and in the assay on P14 cells (Day9) were 1.80 fold and 2.85 fold, respectively. Moreover, the “proliferation of transferred expanded cells after LM-OVA challenge” value with OVA-specific TILs is “better proliferation”.
